Assay results as given in ChEMBL document CHEMBL1201862, “PubChem BioAssay data set” (2004).
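Growth conditions: 96-well plates. Treatment: test compound, 48 hours, 5 concentrations. Analysis: linear interpolation between bracketing concentrations; unreached endpoints set to highest concentration. The concentration for 50% growth inhibition is given as GI50.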 Active and inactive are the calls of the source. Cut-off read from the data, not from the text of the source: active = GI50 up to about 1.1 µM and inactive = higher.

Experiments:
Experiment in all cases: NCI tumour cell line growth inhibition, 48 h
[1] = system: HCC 2998
[2] = system: CCRF-CEM
[3] = system: 786-0
[4] = system: NCI-H522
[5] = system: Hs-578T
[6] = system: SK-MEL-28
[7] = system: SW-620
[8] = system: MDA-N
[9] = system: OVCAR-5
[10] = system: IGROV-1
[11] = system: NCI-H226
[12] = system: LOX IMVI
[13] = system: SF-268
[14] = system: U-251
[15] = system: MOLT-4
[16] = system: SK-OV-3
[17] = system: TK-10
[18] = system: DMS-273
[19] = system: SNB-78
[20] = system: DLD-1

Compound | GI50 [1] | GI50 [2] | GI50 [3] | GI50 [4] | GI50 [5] | GI50 [6] | GI50 [7] | GI50 [8] | GI50 [9] | GI50 [10] | GI50 [11] | GI50 [12] | GI50 [13] | GI50 [14] | GI50 [15] | GI50 [16] | GI50 [17] | GI50 [18] | GI50 [19] | GI50 [20]
Cc1ccnc2nc(-c3ccc(F)cc3)cc(O)c12 | 60 µM (inactive) | 75.9 µM (inactive) | 42.2 µM (inactive) | 9.04 µM (inactive) | 72.4 µM (inactive) | 77.3 µM (inactive) | 33.7 µM (inactive) | 3.51 µM (inactive) | > 100 µM (inactive) | 26.4 µM (inactive) | 64 µM (inactive) | 26.2 µM (inactive) | 74.6 µM (inactive) | 38 µM (inactive) | > 71.4 µM (inactive) | > 86.9 µM (inactive) | > 97.3 µM (inactive) | – | – | –
Cc1ccc2nnc(NS(=O)(=O)c3cc(C)c(Cl)cc3S)n2n1 | > 100 µM (inactive) | > 100 µM (inactive) | > 100 µM (inactive) | > 100 µM (inactive) | > 100 µM (inactive) | > 100 µM (inactive) | > 100 µM (inactive) | > 100 µM (inactive) | > 100 µM (inactive) | > 100 µM (inactive) | > 100 µM (inactive) | > 100 µM (inactive) | > 100 µM (inactive) | > 100 µM (inactive) | > 100 µM (inactive) | > 100 µM (inactive) | > 100 µM (inactive) | – | – | –
CCOC(=O)c1nc2ccccc2nc1Nc1ccc(F)cc1 | > 100 µM (inactive) | > 100 µM (inactive) | 17.9 µM (inactive) | 20.4 µM (inactive) | 10.2 µM (inactive) | > 100 µM (inactive) | > 100 µM (inactive) | > 100 µM (inactive) | > 59.3 µM (inactive) | 13.7 µM (inactive) | 17.9 µM (inactive) | 79.4 µM (inactive) | 8.39 µM (inactive) | 18.8 µM (inactive) | > 100 µM (inactive) | 11.7 µM (inactive) | 30.6 µM (inactive) | – | – | –
CC1=C(Cl)C=CP(=O)(Oc2ccccc2)C1 (configuration not stated) | > 100 µM (inactive) | > 10 µM (inactive) | – | 15.6 µM (inactive) | – | 26.4 µM (inactive) | 39.4 µM (inactive) | – | > 100 µM (inactive) | > 100 µM (inactive) | – | 33 µM (inactive) | 29.1 µM (inactive) | > 100 µM (inactive) | > 10 µM (inactive) | – | – | 27.5 µM (inactive) | 41.1 µM (inactive) | –
Nc1ncnc2c(C3OC(CO)C(O)C3O)n[nH]c12 (configuration not stated) | 0.0375 µM (active) | – | – | 0.151 µM (active) | – | – | 0.106 µM (active) | – | 0.59 µM (active) | 0.445 µM (active) | – | 0.0647 µM (active) | – | 2.53 µM (inactive) | – | – | – | 0.0826 µM (active) | 0.53 µM (active) | 0.0575 µM (active)
CNc1ccc([N+](=O)[O-])cc1C(=O)N1CCC[C@H]1CO | > 100 µM (inactive) | > 100 µM (inactive) | > 100 µM (inactive) | > 100 µM (inactive) | > 100 µM (inactive) | > 100 µM (inactive) | > 100 µM (inactive) | > 100 µM (inactive) | > 100 µM (inactive) | > 100 µM (inactive) | 19.5 µM (inactive) | > 100 µM (inactive) | > 100 µM (inactive) | > 100 µM (inactive) | > 100 µM (inactive) | > 100 µM (inactive) | > 100 µM (inactive) | – | – | –
CC1OC(OC2C(OC(=O)[C@]34CCC(C)(C)C[C@H]3C3=CC[C@@H]5[C@@]6(C)CC[C@H](OC7OC(CO)C(O)C(O)C7OC7OC(CO)C(O)C(O)C7O)C(C)(C)[C@@H]6CC[C@@]5(C)[C@]3(C)CC4)OCC(O)C2O)C(O)C(OC2OCC(O)C(O)C2O)C1OC1OCC(O)C(OC2OCC(O)C(O)C2O)C1O (some centres not stated) | 2.14 µM (inactive) | 22.3 µM (inactive) | 12.2 µM (inactive) | 3.19 µM (inactive) | 21.4 µM (inactive) | 2.37 µM (inactive) | 15.7 µM (inactive) | 2.27 µM (inactive) | 8.55 µM (inactive) | 19.1 µM (inactive) | 7.05 µM (inactive) | 16.2 µM (inactive) | 9.51 µM (inactive) | 18.2 µM (inactive) | 13.2 µM (inactive) | 32.2 µM (inactive) | 13.4 µM (inactive) | – | – | –
COc1cc(/C=C/C(=O)OCC23CC[C@@]4(C(=O)O)CCC(C)[C@H](C)C4C2=CCC2[C@@]4(C)CC[C@H](O)C(C)(C)C4CC[C@]23C)ccc1O (some centres not stated) | 54.1 µM (inactive) | 4.59 µM (inactive) | 11 µM (inactive) | 3.98 µM (inactive) | 4.66 µM (inactive) | 37.8 µM (inactive) | 37.7 µM (inactive) | 24.3 µM (inactive) | 21.7 µM (inactive) | 14.5 µM (inactive) | 27.5 µM (inactive) | 15.6 µM (inactive) | 4.66 µM (inactive) | 27.9 µM (inactive) | 6.68 µM (inactive) | 29 µM (inactive) | 2.97 µM (inactive) | – | – | –
CCCCCCCCCc1cc(O)c(O)cc1CCCCCCCCC | > 10 µM (inactive) | > 10 µM (inactive) | > 10 µM (inactive) | > 10 µM (inactive) | > 10 µM (inactive) | > 10 µM (inactive) | > 10 µM (inactive) | > 10 µM (inactive) | > 10 µM (inactive) | > 10 µM (inactive) | > 10 µM (inactive) | > 10 µM (inactive) | > 10 µM (inactive) | > 10 µM (inactive) | > 10 µM (inactive) | > 10 µM (inactive) | > 10 µM (inactive) | – | – | –
